Reference: US20090087889A1, “Methods and compositions for growth hydrocarbons in botryococcus sp” (priority 2005, published 2009)

Tested on: Botryococcus sp. colonies
Assay: Flotation (buoyancy) of bottom-dwelling colonies as visual assay of hydrocarbon content
Format: cell-based
From the text: Previous investigations (Ohmori, et al. 1984; and Wolf, et al, 1985) verified that colonies containing greater than 20% of dry weight as botryococcenoid hydrocarbons were buoyant and that colonies containing less than 5% hydrocarbons remained sunken at the bottom of the culture vessel, providing a visual method for selecting cells with commercial-grade hydrocarbons. […] Colonies in hydrocarbon-enhancement were placed […] without supplemental carbon dioxide gas to eliminate artifacts of flotation from bubbles. Environmental conditions were 150 μE/m^2/sec PAR to 1700 μE/m^2/sec PAR at 25-37° Centigrade. Nutrient chemicals were reagent grade in all laboratory-scale experiments. In field-scale tests, fertilizer grade chemical nutrients were provided. In order to minimize or eliminate ammonia, nitrates were optionally kiln dried prior to admixture. Supplementation with 0.1% to 100% carbon dioxide gas or carbonate (e.g., 10 mg/ml sodium bicarbonate or potassium bicarbonate) increased hydrocarbon synthesis substantially, especially, when under the highest light intensities with soluble elements of the present invention.
Stock cultures were taken from bottom-dwelling colonies that had been maintained in conventional liquid culture media, typified by approximately 1 ppm to 10 ppm phosphate, 0.01 ppm to 0.3 ppm iron, and 0.01 ppm to 0.5 ppm zinc, as for example, in Showa medium and other phycological media. Aqueous nutrient solutions were placed in sterile culture tubes and flasks and steam sterilized twice for 60 minutes. Following inoculation and growth, colonies were concentrated with overnight settling and approximately one million submerged green colonies were collected from the bottom of culture vessels. Equal volumes were resuspended into replicate culture vessels with equal volumes of enhancement media in the highest light intensities available in preparation for experiments. Control cultures were transferred into equal volumes of Showa medium and placed side by side under identical conditions as controls.

Compound	colour of colonies after long exposure (100 ppm Zn^+2, approximately two to eight weeks)	colour of colonies after long exposure (200 mM to 300 mM phosphates, approximately two to eight weeks)	state of colonies after long exposure (after two weeks or more in 300 mM phosphate)	time until bottom-dwelling colonies began to rise to the surface (in water with up to 300 mM phosphates) [h]	total phosphate concentration that stimulated the rise of colonies to the surface (subtractive matrix analysis, most rapid in presence of soluble Mg, Mn, Fe and Zn^+2)
[Zn+2] [Zn^+2]	color change of the colonies toward amber	–	–	–	–
phosphates	–	color change of the colonies toward amber	remained floating, but cleared to amber	≤ 5	greater than 80 mM
